Laboratory results from patent US11471428B2, “Method and pharmaceutical composition for treating depression” (ZHEJIANG UNIVERSITY, priority 2017, dated 2022).
Counter-ions that a name gives are not always drawn.

Tests used:
[1] = not told; cited from earlier work
silent LHb neurons = experiment: NMDA perfusion-induced bursting in originally silent LHb neurons; assay type: cell-based
AMPA receptor (AMPAR) = details: cited from earlier work
[2] = tested on: spontaneously bursting LHb neurons; experiment: Spontaneous bursts of LHb neurons in brain slices, bath application; assay type: cell-based
C56BL/6 mice = experiment: Mouse forced swim test after i.p. administration; assay type: in vivo; details: 1 hour after administration
cLH rats [3] = experiment: Sucrose preference test (SPT) after local bilateral infusion in LHb of cLH rats; assay type: in vivo, rat; details: 1 ul each side
NMDARs = assay type: cell-based; details: NBQX, picrotoxin, 0 Mg2+
NMDAR = details: cited from earlier work
[4] = tested on: lateral habenular neurons; experiment: Hyperpolarization-triggered rebound bursts in LHb brain slices; assay type: cell-based; details: AP5 100 μM
cLH rats [5] = experiment: Forced swim test (FST) after local bilateral infusion in LHb of cLH rats; assay type: in vivo, rat; details: 1 ul each side
LHb neurons [6] = experiment: Whole cell patch recording of spontaneous activity of LHb neurons, cLH rat model; assay type: cell-based; details: LHb slices of cLH rats
LHb neurons [7] = experiment: In vivo multi-tetrode recording in the LHb of CRS mice; set-up: species or system mouse
LHb neurons [8] = experiment: Whole cell patch recording of spontaneous activity of LHb neurons, CRS mouse model; assay type: cell-based; details: LHb slices of CRS mice
[9] = mibefradil 10 nmol, 1 hr after infusion
[10] = ketamine 25 ug, 1 hr after infusion

| Compound | blood-brain barrier permeability [1] | other results |
| --- | --- | --- |
| CN1C(=O)OC(C)(C)C1=O [trimethadione] | shows at least some level of blood-brain barrier permeability | – |
| CC1(C)OC(=O)NC1=O [dimethadione] | shows at least some level of blood-brain barrier permeability | – |
| CN1C(=O)CC(C)(c2ccccc2)C1=O (centres unmarked) [methsuximide] | shows at least some level of blood-brain barrier permeability | – |
| O=C1NC(=O)C(c2ccccc2)(c2ccccc2)N1 [phenytoin] | shows at least some level of blood-brain barrier permeability | – |
| CCc1cccc(N(C)C(N)=Nc2cccc3ccccc23)c1 [Aptiganel] | capable of crossing a blood-brain barrier or show at least certain level of blood-brain barrier permeability | – |
| CCCCCCC(C)(C)c1cc(O)c2c(c1)OC(C)(C)[C@H]1CC=C(CO)C[C@H]21 [HU-211] | capable of crossing a blood-brain barrier or show at least certain level of blood-brain barrier permeability | – |
| NCC1(CC(=O)O)CCCCC1 [Gabapentin] | do not have blood-brain barrier permeability | – |
| NC12CC3CC(CC(C3)C1)C2 [Amantadine] | capable of crossing a blood-brain barrier or show at least certain level of blood-brain barrier permeability | – |
| CN[C@H](CC(=O)O)C(=O)O [NMDA, N-methyl-D-aspartate] | – | originally silent LHb neurons induced to strong bursting activity (silent LHb neurons; NMDA 20 μM, NBQX, picrotoxin, 0 Mg2+): 10 out of 13 |
| NS(=O)(=O)c1cccc2c1c([N+](=O)[O-])cc1nc(O)c(O)nc12 [NBQX] | – | IC50 (AMPA receptor (AMPAR)): 150 nM; spontaneous bursts ([2]; NBQX 10 μM): reduced bursts, but to a much smaller extent than NMDAR blockade |
| CNCC[C@@H](Oc1ccccc1C)c1ccccc1 [Atomoxetine] | capable of crossing a blood-brain barrier or show at least certain level of blood-brain barrier permeability | – |
| CCC1(C)CC(=O)NC1=O (centres unmarked) [ethosuximide] | shows at least some level of blood-brain barrier permeability | effect in the forced swim test (C56BL/6 mice; ethosuximide 100 mg/kg i.p.): ineffective |
| N[C@@H](Cc1ccccn1)c1ccccc1 [AZD6765] | capable of crossing a blood-brain barrier or show at least certain level of blood-brain barrier permeability | – |
| NC(CCCCCP(=O)(O)O)C(=O)O (centres unmarked) [AP7] | observed but at a low level | – |
| COc1ccc2c(c1)[C@]13CCCC[C@@H]1[C@H](C2)N(C)CC3 [Dextromethorphan] | capable of crossing a blood-brain barrier or show at least certain level of blood-brain barrier permeability | – |
| CCCC(CCC)C(=O)[O-].[Na+] [sodium valproate] | shows at least some level of blood-brain barrier permeability | – |
| CN[C@]12CCCC[C@H]1Cc1ccccc12 [PD-137889] | capable of crossing a blood-brain barrier or show at least certain level of blood-brain barrier permeability | – |
| O=C(O)C1CN(C/C=C/P(=O)(O)O)CCN1 (centres unmarked) [CPPene] | capable of crossing a blood-brain barrier or show at least certain level of blood-brain barrier permeability | – |
| CCN(c1ccccc1)c1cc(=NC)n(C)c(C)n1.Cl [ZD7288] | – | effect on spontaneous bursts ([2]; ZD7288 50 μM): significant but much smaller effect on bursts than mibefradil |
| O=C(O)[C@@H]1C[C@H](CP(=O)(O)O)CCN1 (racemic) [Selfotel] | capable of crossing a blood-brain barrier or show at least certain level of blood-brain barrier permeability | – |
| CC(C)(C)CCN1C[C@@H]2C(CNC(=O)c3cc(Cl)cc(Cl)c3)[C@@H]2C1 (some centres unmarked) [ML218] | shows at least some level of blood-brain barrier permeability | – |
| NS(=O)(=O)Cc1noc2ccccc12 [zonisamide] | shows at least some level of blood-brain barrier permeability | – |
| C/C=C1\[C@H]2C=C(C)C[C@]1(N)c1ccc(=O)[nH]c1C2 [Huperzine A] | capable of crossing a blood-brain barrier or show at least certain level of blood-brain barrier permeability | – |
| NC(CCCP(=O)(O)O)C(=O)O (centres unmarked) [AP5] | do not have blood-brain barrier permeability | hedonic behaviors in the SPT (cLH rats [3]; AP5 40 nmol, 0.5 h): increased hedonic behaviors; isolated NMDAR-currents (NMDAR-EPSCs) (NMDARs): abolished; IC50 (NMDAR): 30 µM; probability of neuron hyperpolarization-induced burst [4]: 0.12; spontaneous burst-firing ([2]; AP5 100 μM bath application): stopped burst-firing; immobile time in the FST (cLH rats [5]; AP5 40 nmol, 0.5 h): efficiently reduced the immobile time |
| COCC(=O)O[C@]1(CCN(C)CCCc2nc3ccccc3[nH]2)CCc2cc(F)ccc2[C@@H]1C(C)C [mibefradil] | has no blood-brain barrier permeability | anhedonia in the SPT (cLH rats [3]; [9]): quickly rescued the depressive-like behaviors; immobility in the FST (cLH rats [5]; [9]): quickly rescued the depressive-like behaviors |
| O=C(O)c1cc(=O)c2ccccc2[nH]1 [kynurenic acid] | capable of crossing a blood-brain barrier or show at least certain level of blood-brain barrier permeability | – |
| CNC1(c2ccccc2Cl)CCCCC1=O (centres unmarked) [ketamine] | capable of crossing a blood-brain barrier or show at least certain level of blood-brain barrier permeability | NMDA-induced bursting activity (silent LHb neurons; additional bath application of 100 μM ketamine): blocked; anhedonia, sucrose preference test (cLH rats [3]; [10]): sufficient to quickly rescue the depressive-like behaviors; sustained antidepressant effect in SPT (cLH rats [3]; ketamine 25 ug, 14 d): sustained antidepressant effects for 14 days; increase of bursting neurons in cLH rat model (LHb neurons [6]): reversed by ketamine; effect in the forced swim test (C56BL/6 mice; ketamine 2.5 mg/kg i.p.): ineffective; LHb bursting activity in vivo (LHb neurons [7]; 10 mg/kg, i.p., 1 h prior to recording, CRS mice): significantly suppressed; cumulative frequency distributions of ISI (LHb neurons [7]; 10 mg/kg, i.p., CRS mice): significantly shifted toward control level; LHb network synchronization (STA and SFC, theta band) (LHb neurons [7]; 1 hr after systemic injection, 10 mg/kg, i.p., CRS mice): reversed to control level; 50% percentile of ISI (LHb neurons [7]; CRS mice treated with ketamine (control 143 ms, CRS 33 ms)): 121 ms; increase of bursting neurons in CRS mouse model (LHb neurons [8]): reversed by ketamine; immobility time in the FST (cLH rats [5]; [10]): sufficient to quickly rescue the depressive-like behaviors; sustained antidepressant effect in FST (cLH rats [5]; ketamine 25 ug, 14 d): sustained antidepressant effects for 14 days |
| CC12CC3CC(C)(C1)CC(N)(C3)C2 [memantine hydrochloride] | capable of crossing a blood-brain barrier or show at least certain level of blood-brain barrier permeability | – |
